Assay results reported in ChEMBL document CHEMBL1201862, “PubChem BioAssay data set” (2004).
Several values for one entry are separate records, joined by “and”; a condition that tells them apart may be missing. Equal values may be shown once. Activity calls are given as the source filed them.

Columns and labels:
[1] = target: NAD-dependent protein deacylase sirtuin-5, mitochondrial (Homo sapiens, UniProt Q9NXA8); test: sirtuin-5 deacylation blockers, concentration series – biochemical, fluorescence imaging, cherry-pick, set 5, dose response (AID 720591);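 also: desuccinylation of succinyl peptide AMC substrate read as fluorescence after trypsin release; potency of inhibitors that lower fluorescence and may act on trypsin instead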
Protein skinhead-1 = target: T1, Protein skinhead-1 (Caenorhabditis elegans, UniProt P34707); format: functional
T1 sequence (P34707 whole entry): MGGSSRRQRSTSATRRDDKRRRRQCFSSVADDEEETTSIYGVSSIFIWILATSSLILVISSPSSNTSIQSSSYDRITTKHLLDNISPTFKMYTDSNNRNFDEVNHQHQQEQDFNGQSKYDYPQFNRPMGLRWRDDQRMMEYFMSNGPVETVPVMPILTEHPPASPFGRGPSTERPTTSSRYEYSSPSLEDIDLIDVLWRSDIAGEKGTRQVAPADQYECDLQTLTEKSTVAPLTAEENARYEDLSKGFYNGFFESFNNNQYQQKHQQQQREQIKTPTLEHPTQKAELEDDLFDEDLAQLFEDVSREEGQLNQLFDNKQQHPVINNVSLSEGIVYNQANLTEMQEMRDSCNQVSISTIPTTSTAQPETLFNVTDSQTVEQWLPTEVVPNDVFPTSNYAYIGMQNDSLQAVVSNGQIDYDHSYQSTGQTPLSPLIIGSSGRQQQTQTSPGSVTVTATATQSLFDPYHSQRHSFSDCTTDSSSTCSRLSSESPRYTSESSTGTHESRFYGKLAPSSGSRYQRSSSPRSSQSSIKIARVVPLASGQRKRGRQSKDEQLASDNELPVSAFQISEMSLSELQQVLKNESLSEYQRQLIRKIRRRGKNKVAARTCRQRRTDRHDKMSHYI

A549 = test: viability loss in A549 cells – cell-based, plate reader, cherry-pick samples, cytotoxicity control, dose response (AID 687028); format: functional; conditions: Homo sapiens
[2] = target: T2, Adenosylmethionine-8-amino-7-oxononanoate aminotransferase (Mycobacterium tuberculosis, UniProt P9WQ81); test: Mycobacterium tuberculosis BioA enzyme inhibitor Measured in Biochemical System Using Plate Reader - 2163-02_Inhibitor_Dose_CherryPick_Activity.; format: functional, Mycobacterium tuberculosis UT205
T2 sequence (P9WQ81 whole entry): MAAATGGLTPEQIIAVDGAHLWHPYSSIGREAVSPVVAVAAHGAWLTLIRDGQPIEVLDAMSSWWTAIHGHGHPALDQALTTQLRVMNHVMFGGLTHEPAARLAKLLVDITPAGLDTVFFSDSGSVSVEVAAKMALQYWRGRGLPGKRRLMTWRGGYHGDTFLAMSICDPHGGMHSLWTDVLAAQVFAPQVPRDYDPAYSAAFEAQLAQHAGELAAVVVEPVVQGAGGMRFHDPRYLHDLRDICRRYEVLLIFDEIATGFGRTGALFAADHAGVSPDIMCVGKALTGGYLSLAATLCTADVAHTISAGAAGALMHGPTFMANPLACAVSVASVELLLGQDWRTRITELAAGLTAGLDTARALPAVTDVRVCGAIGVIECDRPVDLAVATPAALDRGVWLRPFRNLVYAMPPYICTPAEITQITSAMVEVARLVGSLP

HeLa = test: viability loss in HeLa cells – cell-based, ATP luminescence, cherry-pick samples, cytotoxicity control, dose response (AID 687004); format: functional; conditions: Homo sapiens
[3] = HEK293 Cytotoxicity Assay Measured in Cell-Based System Using Plate Reader - 7071-01_Inhibitor_Dose_CherryPick_Activity_Set2.; format: functional
HEK293 = test: viability loss in HEK293T cells – cell-based, ATP luminescence, cherry-pick samples, cytotoxicity control, dose response (AID 687005); format: functional; conditions: Homo sapiens;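 also: cells exposed to compound for 48 hours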
[4] = reduced cellular PGC1a acetyl-lysine signal – cell-based, cherry-picked samples, dose response (AID 720514); format: functional;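 also: potency may reflect raised or lowered acetylation signal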
[5] = viability loss in CEM21 cells – cell-based, plate reader, dry powder, cytotoxicity control, dose response (AID 687026); format: functional
[6] = luciferase signal loss, tTA control fusion, HeLa F-luc tTA cells, dry powder, counter-screen for HIV Env fusion inhibitor project, dose response (AID 687021); format: functional, cell-based
[7] = inhibition of Env-driven cell fusion – HIV entry, plate reader, dry powder, dose response (AID 687023); format: functional, cell-based
[8] = HeLa cell viability loss – plate reader, dry powder, cytotoxicity control, dose response (AID 651946); format: functional, cell-based
[9] = inhibitors of non-replicating M. tuberculosis, dose response, luciferase, dry powder (AID 651620); format: functional; conditions: Mycobacterium tuberculosis
[10] = inhibitors of non-replicating M. tuberculosis, dose response, luciferase, dry powder (AID 651619); format: functional; conditions: Mycobacterium tuberculosis
[11] = HepG2 cell viability loss – cherry-picked samples, cytotoxicity control, dose response (AID 1053183); format: functional, cell-based
[12] = HEK293 cell viability loss – cherry-picked samples, cytotoxicity control, dose response (AID 1053185); format: functional, cell-based
[13] = YAP1 overexpression rescue of CTGF inhibition – DLD1 cells, RT-qPCR, cherry-pick, mechanism study for YAP1 pathway inhibitor project, dose response (AID 1053127); format: functional, cell-based; conditions: DLD-1
[14] = Late stage assay provider results from the probe development effort to identify inhibitors of the Plasmodium falciparum M18 Aspartyl Aminopeptidase (M18AAP): radiolabel-based cell-based dose response assay to identify compounds that inhibit P. falciparum growth in RBCs, Set 2..; format: functional
Protein Wnt-3a = Protein Wnt-3a (Mus musculus, UniProt P27467); test: SAR analysis of small molecule antagonists of Gli-SUFU in a Wnt3a luminescent reporter assay.; format: functional
NS3 = NS3 (Hepatitis C virus, UniProt A3EZJ3); test: NS3h DNA-binding inhibition IC50 – biochemical, fluorescence polarization, ChemBridge library, dose response (AID 743264)
Sequence of NS3 (A3EZJ3 whole entry): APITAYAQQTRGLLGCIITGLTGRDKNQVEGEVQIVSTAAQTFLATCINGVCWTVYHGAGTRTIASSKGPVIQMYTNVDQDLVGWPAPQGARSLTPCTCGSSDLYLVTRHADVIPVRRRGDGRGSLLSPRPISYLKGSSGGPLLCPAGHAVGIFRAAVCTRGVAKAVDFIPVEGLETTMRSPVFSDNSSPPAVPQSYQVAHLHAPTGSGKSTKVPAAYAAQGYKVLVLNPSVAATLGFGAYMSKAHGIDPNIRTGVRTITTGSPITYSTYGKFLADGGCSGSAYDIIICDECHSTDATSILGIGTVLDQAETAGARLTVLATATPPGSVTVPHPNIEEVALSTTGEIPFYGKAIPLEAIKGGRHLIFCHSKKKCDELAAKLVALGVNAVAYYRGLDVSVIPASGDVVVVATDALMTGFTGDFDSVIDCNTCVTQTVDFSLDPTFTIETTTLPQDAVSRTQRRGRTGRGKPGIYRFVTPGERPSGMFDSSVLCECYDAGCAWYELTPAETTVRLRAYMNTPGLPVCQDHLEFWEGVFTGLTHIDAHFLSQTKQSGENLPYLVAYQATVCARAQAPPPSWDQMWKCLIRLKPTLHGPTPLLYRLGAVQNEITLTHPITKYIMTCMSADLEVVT

Sequence of NAD-dependent protein deacylase sirtuin-5, mitochondrial (Q9NXA8 whole entry): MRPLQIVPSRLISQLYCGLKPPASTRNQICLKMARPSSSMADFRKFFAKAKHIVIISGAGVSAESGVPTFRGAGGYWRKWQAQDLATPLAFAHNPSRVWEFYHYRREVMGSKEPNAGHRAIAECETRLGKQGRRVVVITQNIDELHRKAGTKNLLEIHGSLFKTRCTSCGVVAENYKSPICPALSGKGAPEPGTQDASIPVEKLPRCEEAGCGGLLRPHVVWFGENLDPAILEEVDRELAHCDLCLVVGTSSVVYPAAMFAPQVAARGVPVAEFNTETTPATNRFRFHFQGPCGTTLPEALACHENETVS
Sequence of Protein Wnt-3a (P27467 whole entry): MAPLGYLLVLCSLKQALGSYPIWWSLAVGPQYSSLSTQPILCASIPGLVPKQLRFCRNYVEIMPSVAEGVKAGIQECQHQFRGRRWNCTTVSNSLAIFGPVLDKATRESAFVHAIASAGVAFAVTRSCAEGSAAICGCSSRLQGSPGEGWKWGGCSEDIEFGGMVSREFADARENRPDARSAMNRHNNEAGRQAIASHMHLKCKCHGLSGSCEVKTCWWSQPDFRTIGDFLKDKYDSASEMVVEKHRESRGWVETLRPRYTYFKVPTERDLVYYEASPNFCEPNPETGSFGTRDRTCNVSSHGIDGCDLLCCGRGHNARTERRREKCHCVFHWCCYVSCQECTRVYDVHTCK

In the case of `Fc1ccc(-c2nc3ccc(Cl)cn3c2Cc2ccsc2)cc1`, the AC50 [1] is reported as 25.8 µM (active) and the IC50 (Protein skinhead-1) is reported as 70.3 µM (inactive).

With `COc1ccc(S(=O)(=O)N2CCN(CC(=O)NC3CC3)CC2)cc1` the AC50 (A549) was 35.1 µM (active).

With `O=C(C1CCOCC1)N1CC[C@@H]2[C@H]1c1cc(Br)ccc1N[C@@H]2CO` the AC50 [2] was 4.59 µM (active) and the AC50 (HeLa) was > 52 µM (inactive).

For `C[C@@H]1CN([C@@H](C)CO)C(=O)Cc2cc(NC(=O)c3ccncc3)ccc2O[C@H]1CN(C)Cc1ccncc1`, the AC50 [3] was > 52 µM (inactive) and the AC50 (HEK293) was > 52 µM (inactive).

In the case of `CC(C)CC#Cc1ccc2c(c1)O[C@@H](CN(C)Cc1ccc3c(c1)OCO3)[C@H](C)CN([C@H](C)CO)S2(=O)=O`, the AC50 [4] is reported as 12.6 µM (active).

With `CCOc1ccc(C)cc1S(=O)(=O)NCc1ccncc1` the AC50 [5] was > 70 µM (inactive), the AC50 [6] was > 70 µM (inactive) and the AC50 [7] was 4.69 µM (active) and 8.19 µM (active).

For `Clc1ccc(-c2nnc(SCc3cn(-c4ccccc4)nn3)o2)cc1`, the AC50 [8] was > 52 µM (inactive), the IC90 [9] was 1 µM (active) and the IC90 [10] was 1 µM (active).

For `C[C@H]1CNC(=O)[C@@H](Cc2ccc(C(F)(F)F)cc2)CCn2nncc2COC1`, the AC50 [11] was 35.5 µM (active) and the AC50 [12] was > 52 µM (inactive).

With `O=C(Nc1ccc(C(F)(F)F)cc1)Nc1ccc2c(c1)[C@H]1C[C@H](CC(=O)N3CCc4ccccc4C3)O[C@@H](CO)[C@H]1O2` the AC50 [13] was > 26 µM (inactive).

For `COc1ccc(C2CCN(c3ccnc4ccccc34)C2)cc1OC` (stereo not given), the IC50 [14] was 2 µM (active).

In the case of `CN(C)c1cc(NC(=O)c2cccc(F)c2)ncn1`, the IC50 (Protein Wnt-3a) is reported as > 21.8 µM (inactive).

For `Cc1ccc(C(=O)O)cc1-n1c(C)ccc1C`, the IC50 (NS3) was 7.6 µM (inactive).
